# Like-named read-outs stand apart in the source and are kept apart here.
# Key:
# dry skin model mouse [1] = experiment: Profilaggrin mRNA amount in dry skin model mouse (quantitative real-time PCR); assay type: in vivo; details: dry skin (A/E/W) model mouse, 0.5% (w/v) topical once a day, Days 0, 3 and 6, ratio to Day 0; FIG. 10
# Procedure: Experiment 5. Increase in Profilaggrin mRNA Amount, Increase of NMF Production and Acceleration of Reduction in TEWL by JAK Inhibitor in Dry Skin Model Mouse
# (§1) “Production of Dry Skin Model Mouse”
# (§2) Using a dry skin model mouse <Non-Patent Literature 12>, the effect of improving the skin barrier function by a JAK inhibitor was evaluated. As an experimental animal, an 8 weeks old female C57BL/6JJmsSlc mouse {Japan SLC, Inc.} was used.
# (§3) Absorbent cotton dipped in a mixed liquid of acetone and diethyl ether (1:1) was put on the surface of the inner side of the right or both auricles of the mouse for 30 seconds, and then absorbent cotton dipped in water was put on the same region for 30 seconds <hereinafter, abbreviated as an A/E/W treatment>. This treatment was conducted twice a day for seven days for each group to produce a dry skin model. The day on which the A/E/W treatment started was taken as Day 0. […]
# “Quantitative Real-Time PCR”
# A mouse having undergone the A/E/W treatment on its right auricle was used in the experiment. […] The cDNA was analyzed by real-time PCR method <intercalator method> using Light Cycler 480 SYBR Green I Master {Roche Diagnostics K.K.} and Light Cycler 480 II {Roche Diagnostics K.K.}, and the Ct values of mouse profilaggrin and GAPDH were respectively determined. […] A relative mRNA amount of mouse profilaggrin was calculated by comparative Ct method. […]
# dry skin model mouse [2] = experiment: NMF production in dry skin model mouse (confocal Raman); assay type: in vivo; details: dry skin (A/E/W) model mouse, 0.5% (w/v) topical once a day, Day 7; FIG. 11
# Procedure: as §1, §2
# as §3, with “model.” for “model. The day on which the A/E/W treatment started was taken as Day 0.”
# A mouse having undergone the A/E/W treatment on its both auricles was used in the experiment. On Day 7, the total NMF amount of the stratum corneum of both the auricles of the mouse was determined by an in vivo confocal Raman spectrometer {model 3510, River Diagnostics, Inc.} <Compound A administration group and Vehicle group; n=3, respectively>.
# A Raman spectrum in the region of 400 to 1800 cm^−1 was measured at an excitation wavelength of 785 nm at intervals of 1 micrometer from the surface of the inner side of the left auricle to the depth of 8 micrometers. A total NMF amount was quantified as an amount per keratin by using Skin Tools 2.0 {River Diagnostics, Inc.}. […]
# [3] = test system: three-dimensional culture skin model TESTSKIN LSE-high; experiment: Increase in protein amount of skin barrier-related protein in three-dimensional culture skin model (Western blotting); assay type: cell-based, human; details: 1000 nmol/L
# Procedure: Experiment 4. Increase in Protein Amount of Skin Barrier-Related Protein by JAK Inhibitor in Three-Dimensional Culture Skin Model
# As a three-dimensional cultured skin model, TESTSKIN LSE-high {TOYOBO CO., LTD., TMLSE-013A} was used <Non-Patent Literature 11>. According to the instruction manual of the TESTSKIN LSE-high, the Living Skin Equivalent <LSE> tissue on the Transwell was cultured in an assay medium included in the kit at 37° C. under 5% CO2 for 24 hours.
# After removing the medium from the LSE tissue culture system, an assay medium containing Compound A in a final concentration of 1000 nmol/L was added in the presence or absence of human IL-4 and human IL-13 {R&D Systems, Inc.} in a final concentration of 20 ng/mL, respectively, and the LSE tissue was cultured at 37° C. under 5% CO2 for three days. The medium was replaced in the same manner as described above, and the LSE tissue was cultured at 37 ° C. under 5% CO2 for another two days. The skin layer of the LSE tissue was collected in a tube, and 0.1 mL of a 50 mmol/L Tris-HCl (pH 8.0) buffer containing 9 mol/L urea, 2% Triton X-100, protease inhibitor cocktail {Sigma-Aldrich Corporation, P8340} and phosphatase inhibitor cocktail {NACALAI TESQUE, INC., 07575-51} was added, and lysed by ultrasonication. To the tissue lysate, 0.08 mL of laemmli SDS-PAGE sample buffer containing 1.73 mmol/L 2-mercaptoethanol was added, and heated at 95 degrees Celsius for five minutes to thermally denature proteins.
# The thermally denatured proteins (0.015 mg/lane) were separated by SDS-polyacrylamide electrophoresis <SDS-PAGE> on 4-12% NuPAGE Bis-Tris gel {Life technologies Corporation}, and filaggrin protein and loricrin protein were detected by Western blotting method. As an internal standard, GAPDH protein was detected. According to ordinary methods, the protein that was separated by SDS-PAGE was blotted on a PVDF membrane {GE Healthcare Ltd.}, and the PVDF membrane was blocked with 5% skim milk {NACALAI TESQUE, INC.}. […] The protein of interest was detected by light exposure to an autoradiography film, Amersham Hyperfilm ECL {GE Healthcare Ltd.} from the PVDF membrane, by using a chemiluminescent substrate {ECL Western Blotting Detection Reagents; GE Healthcare Ltd., RPN2232} according to the instruction manual.
# JAK = details: cited from earlier work
# [4] = test system: Tape Stripping-treated mouse; experiment: NMF production increasing action in Tape Stripping-treated mouse (confocal Raman); assay type: in vivo; details: 0.5% (w/v) in acetone applied to auricle once a day, one, five and seven days after Tape Stripping, FIGS. 5, 6
# Procedure: As an experimental animal, an 8 to 10 weeks old female C57BL/6j mouse {SHIMIZU Laboratory Supplies Co., Ltd.} was used.
# The operation of sticking a cellophane adhesive tape {NICHIBAN CO. , Ltd.} on the inner side of the left auricle of the mouse and peeling the tape off <Tape Stripping> was repeated five times to peel off the cuticle. Each 0.02 mL of acetone <Vehicle> or 0.5% (w/v) test substance was applied to the site having undergone the Tape Stripping once a day until the sixth day after the Tape Stripping. On Day 1 of the Tape Stripping, acetone <Vehicle> or a test substance was applied one hour after the Tape stripping. Compound A or monocitrate of Compound B was used as a test substance.
# After one, five and seven days from the Tape Stripping, the total NMF amount of the inner side of the left auricle was determined by an in vivo confocal Raman spectrometer {model 3510, River Diagnostics, Inc.}.
# A Raman spectrum in the region of 400 to 1800 cm^−1 was measured at an excitation wavelength of 785 nm at intervals of 1 micrometer from the surface of the inner side of the left auricle to the depth of 8 micrometers. A total NMF amount was quantified as an amount per keratin by using Skin Tools 2.0 {River Diagnostics, Inc.}. […] An average value of the total NMF amount was calculated for each measurement depth, and was shown as an individual value at each depth.
# dry skin model mouse [5] = experiment: TEWL in dry skin model mouse; assay type: in vivo; details: dry skin (A/E/W) model mouse, 0.5% (w/v) topical once a day, Days 0, 1, 3, 4 and 7; FIG. 12
# Procedure: as §1, §2
# as §3, with “0. As a normal control group, a mouse not having undergone the A/E/W treatment was used.” for “0.”
# A mouse having undergone the A/E/W treatment on its right auricle was used in the experiment. TEWL in the region where the A/E/W treatment had been conducted was measured directly before the A/E/W treatment on Days 0, 1, 3 and 4, and on Day 7 <Compound A administration group and Vehicle group; n=4, respectively>. TEWL was measured by using a water loss measuring device VAPOSCAN AS-VT100RS {ASAHIBIOMED} at room temperatures (23° C. to 26° C.) and a humidity of 40% to 60%. […]
# [6] = test system: contact dermatitis model mouse; experiment: Suppression of ear swelling in contact dermatitis model mouse (DNFB); assay type: in vivo; details: oral 0.3 or 3 mg/mL at 10 mL/Kg once a day, 24 hours from initiation, FIG. 7
# Procedure: Using a contact dermatitis model mouse against DNFB <Non-Patent Literature 10>, the ear swelling suppressing action of the JAK inhibitor was evaluated. As an experimental animal, an 8 weeks old female C57BL/6j mouse {SHIMIZU Laboratory Supplies Co., Ltd.} was used.
# An abdominal region of the mouse was shaved, and each 0.025 mL of 0.5% (w/v) DNFB {2,4-Dinitrofluorobenzene, Sigma-Aldrich Corporation} diluted with AOO <mixed solution of acetone and olive oil in 4:1> was applied on the abdominal region . After five days, each 0.01 mL of 0.3% (w/v) DNFB diluted with AOO was applied on the front and back of both the auricles of the mouse . For five days from the date of sensitization, 0.5% (w/v) methylcellulose <MC> was administered once a day to the Vehicle group, and 0.3 mg/mL or 3 mg/mL of Compound A suspended in 0.5% (w/v) MC was orally administered to Compound A administration group in a dose of 10 mL/Kg. Each group included three animals. On the days of sensitization and initiation, 0.5% (w/v) MC or Compound A was orally administered one hour before sensitization and initiation.
# Before initiation and after 24 hours from initiation, the thickness of each auricle was measured once with a thickness gauge {TECLOCK Corporation}, and an average of the variation from the thickness of each auricle before initiation was taken as an individual value.
# [7] = in the absence of IL-4/IL-13, five days
# [8] = in the presence of IL-4/IL-13 20 ng/mL, five days, FIG. 8
smiles,measurement,setting,value
"C[C@H]1CN(C(=O)CC#N)[C@]12CCN(c1ncnc3[nH]ccc13)C2 [Compound A, 3-[(3S,4R)-3-methyl-6-(7H-pyrrolo[2,3-d]pyrimidin-4-yl)-1,6-diazaspiro[3.4]octan-1-yl]-3-oxopropanenitrile]",profilaggrin mRNA amount,dry skin model mouse [1],increase
same,total NMF amount (NMF production),dry skin model mouse [2],NMF production increasing action
same,filaggrin protein amount,[3]; [7],increase
same,loricrin protein amount,[3]; [7],increase
same,filaggrin protein amount,[3]; [8],increase
same,loricrin protein amount,[3]; [8],increase
same,JAK inhibition,JAK; stated as known,known to inhibit JAK
same,total NMF amount (NMF production),[4],NMF production increasing action
same,TEWL (transepidermal water loss),dry skin model mouse [5],accelerating a reduction in TEWL
same,ear swelling (auricle thickness variation),[6],suppression of ear swelling
"N#CC[C@H](C1CCCC1)n1cc(-c2ncnc3[nH]ccc23)cn1 [Compound C, (3R)-3-cyclopentyl-3-[4-(7H-pyrrolo[2,3-d]pyrimidin-4-yl)-1 H-pyrazol-1-yl]propanenitrile, reference compound]",JAK inhibition,JAK,known to inhibit JAK
"C[C@@H]1CCN(C(=O)CC#N)C[C@@H]1N(C)c1ncnc2[nH]ccc12 [monocitrate of Compound B, 3-{(3R,4R)-4-methyl-3-[methyl(7H-pyrrolo[2,3-d]pyrimidin-4-yl)amino]piperidin-1-yl}-3-oxopropanenitrile, reference compound]",total NMF amount (NMF production),[4],NMF production increasing action

# From patent US20240075037A1, “SKIN BARRIER FUNCTION IMPROVING AGENT” (Japan Tobacco Inc., priority 2013, published 2024)
